Measurements published in patent publication US7776890B2, “1H-indazole compounds” (Eisai R&D Management Co., Ltd., priority 2005, dated 2010).

target: T1, Human JNK 3 (Homo sapiens, UniProt P53779); experiment: Determination of JNK 3 Inhibition; type: biochemical; settings: 50% inhibitory concentration on the enzymatic activity of JNK; GST-JNK 3, substrate GST-c-Jun, 3.33 μM of ATP, 30 minutes
T1 construct: made in house; host or cells: Escherichia coli
Procedure: Human JNK 3 was expressed as a fusion protein (GST-JNK 3) with glutathione S-transferase (GST) in Escherichia coli and was purified using glutathione Sepharose 4B beads. The amino acid sequence 1-169 of c-Jun was […] as a fusion protein (GST-c-Jun) with GST in Escherichia coli, was purified using glutathione Sepharose 4B beads and was used as a substrate. A test compound was diluted with 100% dimethyl sulfoxide into 10 mM and was then further diluted with 10% aqueous dimethyl sulfoxide solution to yield a dilution series. To each well of 96-well OPTI plate (available from Packard) were placed 20 μl of the diluted compound, 30 μl of a substrate solution (1.2 μg of GST-c-Jun, […], 0.2 μCi of [γ-^33P]ATP, 25 mM of HEPES pH=7.5, 10 mM of magnesium acetate, and 3.33 μM of ATP), and 50 μl of an enzyme solution (0.04 μg of GST-JNK 3, 25 mM of HEPES pH=7.5, and 10 mM magnesium acetate) up to 100 μl, and the mixture was allowed to react for 30 minutes. After terminating the reaction by adding 100 μl of a reaction terminator (80 mM ATP, 50 mg/ml glutathione SPA beads (available from Amersham Pharmacia Biotech)), the reaction mixture was shaken for 30 minutes. The mixture was centrifuged at room temperature at 1000×g for 5 minutes, and the emission intensity thereof was determined on a TopCount™ illuminator (available from Packard). The activity is expressed by the 50% inhibitory concentration on the enzymatic activity of JNK, i.e., IC50 (nM).

T1 sequence (P53779 whole entry): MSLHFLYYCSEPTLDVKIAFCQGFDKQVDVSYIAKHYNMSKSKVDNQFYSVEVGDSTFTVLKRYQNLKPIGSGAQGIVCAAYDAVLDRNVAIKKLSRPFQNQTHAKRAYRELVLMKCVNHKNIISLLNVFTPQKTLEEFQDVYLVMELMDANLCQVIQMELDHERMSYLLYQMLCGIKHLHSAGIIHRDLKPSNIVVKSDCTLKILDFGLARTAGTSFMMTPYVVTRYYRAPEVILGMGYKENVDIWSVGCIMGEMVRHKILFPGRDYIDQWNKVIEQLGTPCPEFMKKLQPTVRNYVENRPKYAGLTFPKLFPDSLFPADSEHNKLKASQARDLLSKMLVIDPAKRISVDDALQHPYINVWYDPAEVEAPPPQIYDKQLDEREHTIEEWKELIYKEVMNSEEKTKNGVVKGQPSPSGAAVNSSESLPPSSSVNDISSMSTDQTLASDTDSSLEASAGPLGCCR

Structure (SMILES)	IC50 [nM]
O=C(Cc1cccs1)Nc1ccc2[nH]nc(-c3cccc(F)c3)c2c1 [Example I-16, N1-[3-(3-Fluorophenyl)-1H-5-indazolyl]-2-(2-thienyl)acetamide]	51
O=C(c1ccccc1)c1ccc2[nH]nc(-c3cccc(F)c3)c2c1 [Example I-26, [3-(3-Fluorophenyl)-1H-5-indazolyl](phenyl)methanone]	113
O=C(Nc1ccc2[nH]nc(-c3cc4ccccc4o3)c2c1)c1ccco1 [Example I-48, N2-(3-Benzo[b]furan-2-yl-1H-5-indazolyl)-2-furamide]	109
O=C(Nc1ccc2[nH]nc(-c3cc4ccccc4s3)c2c1)C1CCOC1 (centres unmarked) [Example I-55, N3-(3-Benzo[b]thiophen-2-yl-1H-5-indazolyl)tetrahydro-3-furancarboxamide]	52
CS(=O)(=O)Nc1ccc2[nH]nc(-c3ccc4ccccc4c3)c2c1 [Example I-94, N-[3-(2-Naphthyl)-1H-5-indazolyl]methanesulfonamide]	163
O=C(Nc1ccc2[nH]nc(-c3ccc4ccccc4c3)c2c1)C1CCNCC1 [Example I-104, N4-[3-(2-Naphthyl)-1H-5-indazolyl]-4-piperidinecarboxamide]	55
CC(=O)c1cccc(-c2n[nH]c3ccc(C(=O)N[C@@H](C)C(N)=O)cc23)c1 [Example I-132, N5-[(1S)-2-Amino-1-methyl-2-oxoethyl]-3-(3-acetylphenyl)-1H-5-indazolecarboxamide]	197
O=C(NCCCN1CCCC1=O)c1ccc2[nH]nc(-c3cc4ccccc4s3)c2c1 [Example I-137, N5-[3-(2-Oxotetrahydro-1H-1-pyrrolyl)propyl]-3-benzo[b]thiophen-2-yl-1H-5-indazolecarboxamide]	54
O=C(NC1CC1)c1ccc2[nH]nc(-c3cccc(F)c3)c2c1 [Example I-143, N5-Cyclopropyl-3-(3-fluorophenyl)-1H-5-indazolecarboxamide]	221
O=C(Cc1ccsc1)Nc1ccc2[nH]nc(-c3cn4ccccc4n3)c2c1 [Example I-163, N1-(3-Imidazo[1,2-a]pyridin-2-yl-1H-5-indazolyl)-2-(3-thienyl)acetamide]	80
COc1c(C(=O)NCc2ccco2)ccc2[nH]nc(-c3cccc(F)c3)c12 [Example II-5, 3-(3-Fluoro-phenyl)-4-methoxy-1H-indazole-5-carboxylic acid (furan-2-ylmethyl)-amide]	100
COc1c(C(=O)NCC2CC2)ccc2[nH]nc(-c3cc4ccccc4o3)c12 [Example II-93, 3-Benzo[b]furan-2-yl-4-methoxy-1H-indazole-5-carboxylic acid cyclopropylmethyl-amide]	137
C[C@H](NC(=O)c1ccc2[nH]nc(-c3cc4ccccc4s3)c2c1F)C(N)=O [Example II-126]	143
O=C(Nc1cc2c(-c3ccc4ccccc4c3)n[nH]c2cc1F)C1CC1 [Example II-184, Cyclopropanecarboxylic acid {6-fluoro-3-naphthalen-2-yl-1H-indazol-5-yl}-amide]	86
O=C(Cc1cccs1)Nc1cc2c(-c3ccc4ccccc4c3)n[nH]c2cc1F [Example II-189, N-(6-Fluoro-3-naphthalen-2-yl-1H-indazol-5-yl)-2-thiophen-2-yl-acetamide]	194
COc1cccc(C(=O)NCc2cc3c(-c4ccc5ccccc5c4)n[nH]c3cc2F)c1 [Example II-208, N-{6-Fluoro-3-naphthalen-2-yl-1H-indazol-5-ylmethyl}-3-methoxy-benzamide]	143
CS(=O)(=O)Nc1cc2c(-c3cc4ccccc4s3)n[nH]c2cc1F [Example II-218, N-(3-Benzo[b]thiophen-2-yl-6-fluoro-1H-indazol-5-yl)-methanesulfonamide]	215
O=C(N[C@@H]1CCOC1=O)c1cc(F)c2[nH]nc(-c3ccc4ccccc4c3)c2c1 [Example II-259, 7-Fluoro-3-naphthalen-2-yl-1H-indazole-5-carboxylic acid [(3R)-2-oxo-tetrahydrofuran-3-yl]amide]	148
CCCOc1c(C(=O)N[C@H](CO)C(C)C)ccc2[nH]nc(-c3cc4ccccc4o3)c12 [Example II-281, 3-Benzo[b]furan-2-yl-4-propoxy-1H-indazole-5-carboxylic acid ((1S)-1-hydroxymethyl-2-methyl-propyl)-amide]	84
O=C(Cc1ccsc1)Nc1cc(F)c2[nH]nc(-c3cccc(F)c3)c2c1 [Example II-288, N-[7-Fluoro-3-(3-fluorophenyl)-1H-indazol-5-yl]-2-thiophen-3-ylacetamide]	71
